Experiments:
Type in all cases: cell-based
[1] = Keratinocyte viability/toxicity: MTT test, microscopy, flow cytometry for apoptosis and necrosis; conditions: keratinocytes; tested at 1-25 µM; read-out: Zellvitalität (MTT-Test): nicht toxisch bis
Method: (§1) Die Proliferation von Keratinozyten wurde in Gegenwart von 1-10 µM von Sphingolipid-Derivaten untersucht. Nach 4-tägiger Behandlung mit verschiedenen Sphingolipiden wurde in der logarithmischen Wachstumsphase der Keratinozyten der [^3H]-Thymidineinbau in die DNA gemessen. […] Eine Proliferationshemmung tritt bereits bei einer Konzentration von 1 µM ein, 10 µM SPP reduzierten den Thymidineinbau um ca. 63,1 % (Abb. 1). […] Anhand des MTT-Tests wurde die Zellvitalität in Gegenwart von 1-25 µM SPP untersucht, bis 10 µM wirkten die Substanzen nicht toxisch. […] Dies zeigten mikroskopische Untersuchungen, der MTT-Test als auch durchflußzytometrische Untersuchungen zu Apoptose und Nekrose.

Fibroblasten = test: Fibroblast proliferation, non-stimulated cells in serum-free medium (DMEM without FKS)
Source text: (§2) Das Wachstumsverhalten menschlicher. Fibroblasten in Gegenwart der Testsubstanzen wurde an nicht stimulierten Zellen verfolgt, die in serumfreiem Medium (nach Dulbecco modifiziertes Earle-Medium (DMEM) ohne fetales Kälber-Serum (FKS)) kultiviert wurden.

Keratinozyten [2] = test: Keratinocyte proliferation in keratinocyte basal medium (KBM) without supplements
Source text: Die Versuche wurden auch in "keratinocyte basal medium" (KBM), ohne Supplemente), an kultivierten Keratinozyten durchgeführt. Damit konnte festgestellt werden, daß SPP bzw. […] DMS und C2C wirkten auch in diesem Medium toxisch.

Keratinozyten [3] = test: Keratinocyte proliferation in KGM, [3H]-thymidine incorporation into DNA; conditions: 4-day treatment; for Proliferation von Keratinozyten ([^3H]-Thymidineinbau in die DNA): 1-10 µM
Method: as §1

Keratinozyten [4] = test: Keratinocyte differentiation, transglutaminase activity
Source text: Nachdem gezeigt worden war, daß SPP die Proliferation von Keratinozyten hemmt, ohne daß damit eine vermehrte Toxizität verbunden ist, wurde der Differenzierungsgrad der Zellen nach Einwirkung der Sphingolipid-Derivate untersucht.

[5] = Fibroblast proliferation, non-stimulated cells in serum-free medium (DMEM without FKS); conditions: human, fibroblasts, read-out: Konzentrationen mit ausgeprägter Toxizität an Fibroblasten
Source text: as §2

## CCCCCCCCCCCCC/C=C/[C@@H](O)[C@@H](N)COP(=O)(O)O [SPP, Sphingosin-1-Phosphat]
[1]
  MNTC: ≤ 10 µM
Fibroblasten; 1 µM
  Proliferation von Fibroblasten: wahrnehmbare Proliferationszunahme
Fibroblasten; Fibroblast, 10 µM, read-out: höchste Aktivität (Proliferation von Fibroblasten)
  fold induction at 10 µM: ~6.5
Fibroblasten; concentration-dependent
  Proliferation von Fibroblasten: konzentrationsabhängig stark' stimuliert
Keratinozyten [2]
  mitogene Effekte an Keratinozyten: keine mitogenen Effekte
Keratinozyten [3]
  Proliferation von Keratinozyten ([^3H]-Thymidineinbau in die DNA): stark proliferationshemmend
  antiproliferative effect compared with another substance: ebenso potent wie Calcipotriol D3
Keratinozyten [3]; Keratinocyte, 96 h, 10 µM, logarithmic growth phase, read-out: reduzierten den Thymidineinbau um
  inhibition at 10 µM: ~63.1%
Keratinozyten [3]; Keratinocyte, 96 h, read-out: Konzentration, bei der eine Proliferationshemmung bereits eintritt
  minimal effective concentration: 1 µM
Keratinozyten [4]
  Differenzierung von Keratinozyten (Transglutaminase-Aktivität): die Differenzierung von Keratinozyten förderten
  Zunahme der Differenzierung von Keratinozyten compared with Calcitriol D3: durchaus vergleichbar

## C=C1/C(=C\C=C2/CCC[C@]3(C)[C@@H]([C@H](C)CCCC(C)(C)O)CC[C@@H]23)C[C@@H](O)C[C@@H]1O [Calcitriol]
Keratinozyten [4]
  Differenzierung von Keratinozyten (Transglutaminase-Aktivität): ebenfalls eine Differenzierung fördert

## CCCCCCCCCCCCC/C=C/[C@@H](O)[C@H](CO)NC(C)=O [C2C, C2-Ceramid]
[5]
  MCC: ≥ 5 µM
Fibroblasten; low concentrations
  Proliferation von Fibroblasten: sehr geringe proliferationsfördernde Wirkung
Keratinozyten [2]
  Toxizität an Keratinozyten: toxisch
Keratinozyten [3]
  Proliferation von Keratinozyten ([^3H]-Thymidineinbau in die DNA): hemmten zwar ebenso den Thymidineinbau

## CCCCCCCCCCCCC/C=C/[C@@H](O)[C@H](CO)N(C)C [DMS, Dimethylsphingosin]
[5]
  MCC: ≥ 5 µM
Keratinozyten [2]
  Toxizität an Keratinozyten: toxisch

## CCCCCCCCCCCCC/C=C/[C@@H](O)[C@@H](N)CO [SPH, Sphingosin]
Fibroblasten
  Wirkstärke (Teilungsaktivität bei Fibroblasten) compared with SPP: niedriger als bei SPP
Fibroblasten; 10 µM
  toxische Effekte an Fibroblasten: toxische Effekte
Fibroblasten; concentration-dependent
  Proliferation von Fibroblasten: konzentrationsabhängig stark' stimuliert
Keratinozyten [2]
  mitogene Effekte an Keratinozyten: keine mitogenen Effekte
Keratinozyten [3]
  Proliferation von Keratinozyten ([^3H]-Thymidineinbau in die DNA): wachstumshemmende Wirkung
  antiproliferative effect compared with another substance: schwächer ausgeprägt als bei SPP
Keratinozyten [4]
  Differenzierung von Keratinozyten (Transglutaminase-Aktivität): die Differenzierung von Keratinozyten förderten
  Zunahme der Differenzierung von Keratinozyten compared with Calcitriol D3: durchaus vergleichbar
